Results on 13 molecules are retold here after BindingDB's records for doi:10.1016/j.bmcl.2008.06.095 (Tokyo University of Agriculture and Technology, 2008).

As usually defined, the IC50 is the concentration at which inhibition is half-maximal.

A value given as a limit tells only on which side of the number the result lay.

This experiment can be described thus: Antagonist activity at VDR in human HL60 cells assessed as effect on 1,25-(OH)2-D3-induced cell differentiation by NBT assay.
Consider `C=C1/C(=C\C=C2/CCC[C@]3(C)[C@@H]([C@H](C)C[C@@H]4C[C@@](C)(O)C(=O)N4Cc4cc(OC)cc(OC)c4)CC[C@@H]23)C[C@@H](O)C[C@@H]1O` [(3R,5R)-1-(3,5-dimethoxybenzyl)-5-((R)-2-((1R,3aS,7aR)-4-(2-((3S,5R)-3,5-dihydroxy-2-methylenecyclohexylidene)ethylidene)-7a-methyl-octahydro-1H-inden-1-yl)propyl)-3-hydroxy-3-methylpyrrolidin-2-one], for which the half-inhibitory concentration (IC50) was greater than 3000 nM.
`C=C1/C(=C\C=C2/CCC[C@]3(C)[C@@H]([C@H](C)C[C@H]4C[C@](C)(O)C(=O)N4CCc4ccccc4)CC[C@@H]23)C[C@@H](O)C[C@@H]1O` [(3S,5S)-5-((R)-2-((1R,3aS,7aR)-4-(2-((3S,5R)-3,5-dihydroxy-2-methylenecyclohexylidene)ethylidene)-7a-methyl-octahydro-1H-inden-1-yl)propyl)-3-hydroxy-3-methyl-1-phenethylpyrrolidin-2-one]: the IC50 was determined as 194 nM.
As for `C=C1/C(=C\C=C2/CCC[C@]3(C)[C@@H]([C@H](C)C[C@H]4C[C@](C)(O)C(=O)N4CCCc4ccccc4)CC[C@@H]23)C[C@@H](O)C[C@@H]1O` [(3S,5S)-5-((R)-2-((1R,3aS,7aR)-4-(2-((3S,5R)-3,5-dihydroxy-2-methylenecyclohexylidene)ethylidene)-7a-methyl-octahydro-1H-inden-1-yl)propyl)-3-hydroxy-3-methyl-1-(3-phenylpropyl)pyrrolidin-2-one], the IC50 amounted to 2200 nM.
The value for `C=C1/C(=C\C=C2/CCC[C@]3(C)[C@@H]([C@H](C)C[C@H]4C[C@](C)(O)C(=O)N4Cc4cc(OCCCC)cc(OCCCC)c4)CC[C@@H]23)C[C@@H](O)C[C@@H]1O` [(3S,5S)-1-(3,5-dibutoxybenzyl)-5-((R)-2-((1R,3aS,7aR)-4-(2-((3S,5R)-3,5-dihydroxy-2-methylenecyclohexylidene)ethylidene)-7a-methyl-octahydro-1H-inden-1-yl)propyl)-3-hydroxy-3-methylpyrrolidin-2-one] was 540 nM; that for `C=C1/C(=C\C=C2/CCC[C@]3(C)[C@@H]([C@H](C)C[C@H]4C[C@](C)(O)C(=O)N4Cc4cc(OCCC)cc(OCCC)c4)CC[C@@H]23)C[C@@H](O)C[C@@H]1O` [(3S,5S)-1-(3,5-dipropoxybenzyl)-5-((R)-2-((1R,3aS,7aR)-4-(2-((3S,5R)-3,5-dihydroxy-2-methylenecyclohexylidene)ethylidene)-7a-methyl-octahydro-1H-inden-1-yl)propyl)-3-hydroxy-3-methylpyrrolidin-2-one] was 180 nM.
The value for `C=C1/C(=C\C=C2/CCC[C@]3(C)[C@@H]([C@H](C)C[C@H]4C[C@](C)(O)C(=O)N4CCCCc4ccccc4)CC[C@@H]23)C[C@@H](O)C[C@@H]1O` [(3S,5S)-5-((R)-2-((1R,3aS,7aR)-4-(2-((3S,5R)-3,5-dihydroxy-2-methylenecyclohexylidene)ethylidene)-7a-methyl-octahydro-1H-inden-1-yl)propyl)-3-hydroxy-3-methyl-1-(4-phenylbutyl)pyrrolidin-2-one] was 390 nM; that for `C=C1/C(=C\C=C2/CCC[C@]3(C)[C@@H]([C@H](C)C[C@H]4C[C@](C)(O)C(=O)N4CCc4cc(OC)cc(OC)c4)CC[C@@H]23)C[C@@H](O)C[C@@H]1O` [(3S,5S)-1-(3,5-dimethoxyphenethyl)-5-((R)-2-((1R,3aS,7aR)-4-(2-((3S,5R)-3,5-dihydroxy-2-methylenecyclohexylidene)ethylidene)-7a-methyl-octahydro-1H-inden-1-yl)propyl)-3-hydroxy-3-methylpyrrolidin-2-one] was 860 nM.
The same measure for `C=C1/C(=C\C=C2/CCC[C@]3(C)[C@@H]([C@H](C)C[C@H]4C[C@@](C)(O)C(=O)N4Cc4cc(OC)cc(OC)c4)CC[C@@H]23)C[C@@H](O)C[C@@H]1O` [(3R,5S)-1-(3,5-dimethoxybenzyl)-5-((R)-2-((1R,3aS,7aR)-4-(2-((3S,5R)-3,5-dihydroxy-2-methylenecyclohexylidene)ethylidene)-7a-methyl-octahydro-1H-inden-1-yl)propyl)-3-hydroxy-3-methylpyrrolidin-2-one]: greater than 3000 nM.
As to `C=C1/C(=C\C=C2/CCC[C@]3(C)[C@@H]([C@H](C)C[C@H]4C[C@](C)(O)C(=O)N4CCCc4cc(OC)cc(OC)c4)CC[C@@H]23)C[C@@H](O)C[C@@H]1O` [(3S,5S)-5-((R)-2-((1R,3aS,7aR)-4-(2-((3S,5R)-3,5-dihydroxy-2-methylenecyclohexylidene)ethylidene)-7a-methyl-octahydro-1H-inden-1-yl)propyl)-1-(3-(3,5-dimethoxyphenyl)propyl)-3-hydroxy-3-methylpyrrolidin-2-one], the IC50 is 780 nM.
Turning to `C=C1/C(=C\C=C2/CCC[C@]3(C)[C@@H]([C@H](C)C[C@H]4C[C@](C)(O)C(=O)N4Cc4cc(OCC)cc(OCC)c4)CC[C@@H]23)C[C@@H](O)C[C@@H]1O` [(3S,5S)-1-(3,5-diethoxybenzyl)-5-((R)-2-((1R,3aS,7aR)-4-(2-((3S,5R)-3,5-dihydroxy-2-methylenecyclohexylidene)ethylidene)-7a-methyl-octahydro-1H-inden-1-yl)propyl)-3-hydroxy-3-methylpyrrolidin-2-one], the 50% inhibitory concentration (IC50) was determined as 90 nM.
Turning to `C=C1/C(=C\C=C2/CCC[C@]3(C)[C@@H]([C@H](C)C[C@@H]4C[C@](C)(O)C(=O)N4Cc4cc(OC)cc(OC)c4)CC[C@@H]23)C[C@@H](O)C[C@@H]1O` [(3S,5R)-1-(3,5-dimethoxybenzyl)-5-((R)-2-((1R,3aS,7aR)-4-(2-((3S,5R)-3,5-dihydroxy-2-methylenecyclohexylidene)ethylidene)-7a-methyl-octahydro-1H-inden-1-yl)propyl)-3-hydroxy-3-methylpyrrolidin-2-one], the IC50 was greater than 3000 nM.
For `C=C1/C(=C\C=C2/CCC[C@]3(C)[C@@H]([C@H](C)C[C@H]4C[C@](C)(O)C(=O)N4Cc4cc(OC)cc(OC)c4)CC[C@@H]23)C[C@@H](O)C[C@@H]1O` [(3S,5S)-1-(3,5-dimethoxybenzyl)-5-((R)-2-((1R,3aS,7aR)-4-(2-((3S,5R)-3,5-dihydroxy-2-methylenecyclohexylidene)ethylidene)-7a-methyl-octahydro-1H-inden-1-yl)propyl)-3-hydroxy-3-methylpyrrolidin-2-one], the concentration for half-maximal inhibition (IC50) came out at 300 nM.
The same measure for `C=C1/C(=C\C=C2/CCC[C@]3(C)[C@@H]([C@H](C)C[C@H]4C[C@](C)(O)C(=O)N4Cc4ccccc4)CC[C@@H]23)C[C@@H](O)C[C@@H]1O` [(3S,5S)-1-benzyl-5-((R)-2-((1R,3aS,7aR)-4-(2-((3S,5R)-3,5-dihydroxy-2-methylenecyclohexylidene)ethylidene)-7a-methyl-octahydro-1H-inden-1-yl)propyl)-3-hydroxy-3-methylpyrrolidin-2-one]: 700 nM.
